Assay results published in ChEMBL document CHEMBL1155173, “Modulation of the cellular accumulation and intracellular activity of daptomycin towards phagocytized Staphylococcus aureus by the P-glycoprotein (MDR1) efflux transporter in human THP-1 macrophages and madin-darby canine kidney cells” (Antimicrob Agents Chemother, 2007).
Values after ≈ are worked out from the molar mass of the structure shown. Active and inactive are the calls of the source. No cut-off for these calls is given here.

How the values were obtained:
Staphylococcus aureus [1] = assay: Antibacterial activity against methicillin-sensitive Staphylococcus aureus ATCC 25923 phagocytized in human THP1 cells after 24 hrs in presence of 1 mg/liter daptomycin; assay type: functional, organism-based; details: THP-1
THP-1 [2] = assay: Decrease in intracellular calcium concentration in human THP1 cells at 100 uM after 60 mins; assay type: functional; parameters: scale not given: the % may be the effect or the level left
THP-1 [3] = assay: Cellular uptake in methicillin-sensitive Staphylococcus aureus ATCC 25923 phagocytized in human mdr1 siRNAs- induced MDR1 deficient human THP1 cells assessed as increase accumulation at 250 mg/liter after 24 hrs by […]; assay type: ADME, cell-based; details: thp-1, 24 h
THP-1 [4] = assay: Decrease in intracellular calcium concentration in human THP1 cells at 50 uM after 60 mins; assay type: functional; parameters: scale not given: the % may be the effect or the level left
THP-1 [5] = assay: Decrease in intracellular calcium concentration in human THP1 cells at 250 uM after 60 mins; assay type: functional, cell-based
Staphylococcus aureus [6] = assay: Antibacterial activity against methicillin-sensitive Staphylococcus aureus ATCC 25923 phagocytized in human THP1 cells after 24 hrs; assay type: functional, organism-based; details: ATCC 25923, THP-1, 24 h
Staphylococcus aureus [7] = assay: Antibacterial activity against methicillin-sensitive Staphylococcus aureus ATCC 25923 phagocytized in human THP1 cells assessed as concentration resulting in no apparent bacterial growth after 24 hrs; assay type: functional, THP-1
Staphylococcus aureus [8] = assay: Antibacterial activity against methicillin-sensitive Staphylococcus aureus ATCC 25923 phagocytized in human THP1 cells assessed as decrease in CFU at 1 mg/liter after 24 hrs; assay type: functional, THP-1
Staphylococcus aureus [9] = assay: Antibacterial activity against methicillin-sensitive Staphylococcus aureus ATCC 25923 phagocytized in human THP1 cells after 24 hrs in presence of 100 uM verapamil; assay type: functional, organism-based; details: ATCC 25923, THP-1, 24 h
THP-1 [10] = assay: Cellular uptake in methicillin-sensitive Staphylococcus aureus ATCC 25923 phagocytized in human THP1 cells assessed as apparent cellular to extracellular concentration ratio at 250 mg/liter after 24 hrs under 2-deoxyglucose-induced ATP depleted condition by fluorimetry; assay type: ADME, cell-based; details: thp-1, 24 h
Staphylococcus aureus [11] = assay: Antibacterial activity against methicillin-sensitive Staphylococcus aureus ATCC 25923 phagocytized in human THP1 cells assessed as concentration resulting in no apparent bacterial growth after 24 hrs in presence of 100 uM verapamil; assay type: functional, THP-1
Staphylococcus aureus [12] = assay: Antibacterial activity against methicillin-sensitive Staphylococcus aureus ATCC 25923 phagocytized in human THP1 cells assessed as decrease in CFU at 1 mg/liter after 24 hrs in presence of 100 uM verapamil; assay type: functional, THP-1
Staphylococcus aureus [13] = assay: Antibacterial activity against methicillin-sensitive Staphylococcus aureus ATCC 25923 phagocytized in human THP1 cells after 24 hrs in presence of 0.5 uM elacridar; assay type: functional, organism-based; details: ATCC 25923, THP-1, 24 h
Staphylococcus aureus [14] = assay: Antibacterial activity against methicillin-sensitive Staphylococcus aureus ATCC 25923 phagocytized in human THP1 cells assessed as concentration resulting in no apparent bacterial growth after 24 hrs in presence of 0.5 uM elacridar; assay type: functional, THP-1
Staphylococcus aureus [15] = assay: Antibacterial activity against methicillin-sensitive Staphylococcus aureus ATCC 25923 phagocytized in human THP1 cells assessed as decrease in CFU at 1 mg/liter after 24 hrs in presence of 0.5 uM elacridar; assay type: functional, THP-1
Staphylococcus aureus [16] = assay: Antibacterial activity against methicillin-sensitive Staphylococcus aureus ATCC 25923 phagocytized in wild type MDCK cells after 24 hrs; assay type: functional, organism-based; details: ATCC 25923, MDCK
Staphylococcus aureus [17] = assay: Antibacterial activity against methicillin-sensitive Staphylococcus aureus ATCC 25923 phagocytized in wild type MDCK cells assessed as concentration resulting in no apparent bacterial growth after 24 hrs; assay type: functional
Staphylococcus aureus [18] = assay: Antibacterial activity against methicillin-sensitive Staphylococcus aureus ATCC 25923 phagocytized in wild type MDCK cells assessed as decrease in CFU at 1 mg/liter after 24 hrs; assay type: functional
Staphylococcus aureus [19] = assay: Antibacterial activity against methicillin-sensitive Staphylococcus aureus ATCC 25923 phagocytized in wild type MDCK cells after 24 hrs in presence of 100 uM verapamil; assay type: functional, organism-based; details: ATCC 25923, MDCK
Staphylococcus aureus [20] = assay: Antibacterial activity against methicillin-sensitive Staphylococcus aureus ATCC 25923 phagocytized in wild type MDCK cells assessed as concentration resulting in no apparent bacterial growth after 24 hrs in presence of 100 uM verapamil; assay type: functional
Staphylococcus aureus [21] = assay: Antibacterial activity against methicillin-sensitive Staphylococcus aureus ATCC 25923 phagocytized in wild type MDCK cells assessed as decrease in CFU at 1 mg/liter after 24 hrs in presence of 100 uM verapamil; assay type: functional
Staphylococcus aureus [22] = assay: Antibacterial activity against methicillin-sensitive Staphylococcus aureus ATCC 25923 phagocytized in MDCK cells over expressing human […] at 1 mg/liter after 24 hrs; assay type: functional, organism-based; details: ATCC 25923, MDCK
Staphylococcus aureus [23] = assay: Antibacterial activity against methicillin-sensitive Staphylococcus aureus ATCC 25923 phagocytized in MDCK cells over expressing human […] assessed as concentration resulting in no apparent bacterial growth after 24 hrs; assay type: functional
Staphylococcus aureus [24] = assay: Antibacterial activity against methicillin-sensitive Staphylococcus aureus ATCC 25923 phagocytized in MDCK cells over expressing human […] assessed as decrease in CFU at 1 mg/liter after 24 hrs; assay type: functional
Staphylococcus aureus [25] = assay: Antibacterial activity against methicillin-sensitive Staphylococcus aureus ATCC 25923 phagocytized in MDCK cells over expressing human […] after 24 hrs in presence of 100 uM verapamil; assay type: functional, organism-based; details: ATCC 25923, MDCK
Staphylococcus aureus [26] = assay: Antibacterial activity against methicillin-sensitive Staphylococcus aureus ATCC 25923 phagocytized in MDCK cells over expressing human […] assessed as concentration resulting in no apparent bacterial growth after 24 hrs in presence of 100 uM verapamil; assay type: functional
Staphylococcus aureus [27] = assay: Antibacterial activity against methicillin-sensitive Staphylococcus aureus ATCC 25923 phagocytized in MDCK cells over expressing human […] assessed as decrease in CFU at 1 mg/liter after 24 hrs in presence of 100 uM verapamil; assay type: functional
THP-1 [28] = assay: Cellular uptake in methicillin-sensitive Staphylococcus aureus ATCC 25923 phagocytized in human THP1 cells assessed as apparent cellular to extracellular concentration ratio at 250 mg/liter after 24 hrs by fluorimetry; assay type: ADME, cell-based; details: thp-1, 24 h
THP-1 [29] = assay: Cellular uptake in methicillin-sensitive Staphylococcus aureus ATCC 25923 phagocytized in human THP1 cells assessed as apparent cellular to extracellular concentration ratio at 250 mg/liter after 24 hrs by fluorimetry in presence of 100 uM verapamil; assay type: ADME, cell-based; details: thp-1, 24 h
THP-1 [30] = assay: Cellular uptake in methicillin-sensitive Staphylococcus aureus ATCC 25923 phagocytized in human THP1 cells assessed as apparent cellular to extracellular concentration ratio at 250 mg/liter after 24 hrs by fluorimetry in presence of 1 uM ouabain; assay type: ADME, cell-based; details: thp-1, 24 h
THP-1 [31] = assay: Cellular uptake in methicillin-sensitive Staphylococcus aureus ATCC 25923 phagocytized in human THP1 cells assessed as apparent cellular to extracellular concentration ratio at 250 mg/liter after 24 hrs by fluorimetry in presence of 250 uM gemfibrozil; assay type: ADME, cell-based; details: thp-1, 24 h
MDCK [32] = assay: Cellular uptake in methicillin-sensitive Staphylococcus aureus ATCC 25923 phagocytized in wild type MDCK cells assessed as apparent cellular to extracellular concentration ratio at 250 mg/liter after 24 hrs by fluorimetry; assay type: ADME, cell-based, Canis lupus familiaris; details: dog
MDCK [33] = assay: Cellular uptake in methicillin-sensitive Staphylococcus aureus ATCC 25923 phagocytized in wild type MDCK cells assessed as apparent cellular to extracellular concentration ratio at 250 mg/liter after 24 hrs by fluorimetry in presence of 100 uM verapamil; assay type: ADME, cell-based, Canis lupus familiaris; details: dog
MDCK [34] = assay: Cellular uptake in methicillin-sensitive Staphylococcus aureus ATCC 25923 phagocytized in wild type MDCK cells assessed as apparent cellular to extracellular concentration ratio at 250 mg/liter after 24 hrs by fluorimetry in presence of 1 uM ouabain; assay type: ADME, cell-based, Canis lupus familiaris; details: dog
MDCK [35] = assay: Cellular uptake in methicillin-sensitive Staphylococcus aureus ATCC 25923 phagocytized in wild type MDCK cells assessed as apparent cellular to extracellular concentration ratio at 250 mg/liter after 24 hrs by fluorimetry in presence of 250 uM gemfibrozil; assay type: ADME, cell-based, Canis lupus familiaris; details: dog
MDCK [36] = assay: Cellular uptake in methicillin-sensitive Staphylococcus aureus ATCC 25923 phagocytized in MDCK cells over expressing human MDR1 assessed as apparent cellular to extracellular concentration ratio at 250 mg/liter after 24 hrs by fluorimetry; assay type: ADME, cell-based, Canis lupus familiaris; details: dog
MDCK [37] = assay: Cellular uptake in methicillin-sensitive Staphylococcus aureus ATCC 25923 phagocytized in MDCK cells over expressing human MDR1 cells assessed as apparent cellular to extracellular concentration ratio at 250 mg/liter after 24 hrs by fluorimetry in presence of 100 uM verapamil; assay type: ADME, cell-based, Canis lupus familiaris; details: dog
MDCK [38] = assay: Cellular uptake in methicillin-sensitive Staphylococcus aureus ATCC 25923 phagocytized in MDCK cells over expressing human MDR1 cells assessed as apparent cellular to extracellular concentration ratio at 250 mg/liter after 24 hrs by fluorimetry in presence of 1 uM ouabain; assay type: ADME, cell-based, Canis lupus familiaris; details: dog
MDCK [39] = assay: Cellular uptake in methicillin-sensitive Staphylococcus aureus ATCC 25923 phagocytized in MDCK cells over expressing human MDR1 cells assessed as apparent cellular to extracellular concentration ratio at 250 mg/liter after 24 hrs by fluorimetry in presence of 250 uM gemfibrozil; assay type: ADME, cell-based, Canis lupus familiaris; details: dog

COc1ccc(CCN(C)CCCC(C#N)(c2ccc(OC)c(OC)c2)C(C)C)cc1OC (stereo unspecified) [VERAPAMIL]
Activity (Staphylococcus aureus [1]): Dose-dependent effect
Activity (THP-1 [2]): 25%

C[C@@H]1O[C@@H](O[C@H]2C[C@@H](O)[C@]3(CO)[C@H]4[C@H](O)C[C@]5(C)[C@@H](C6=CC(=O)OC6)CC[C@]5(O)[C@@H]4CC[C@]3(O)C2)[C@H](O)[C@H](O)[C@H]1O [OUABAIN]
Activity (THP-1 [3]): Active

COc1cc2c(cc1OC)CN(CCc1ccc(NC(=O)c3cccc4c(=O)c5cccc(OC)c5[nH]c34)cc1)CC2
Activity (Staphylococcus aureus [1]): Dose-dependent effect

C[C@H](CCC(=O)[O-])C[C@H](C)C[C@H](C)C(=O)/C=C(\[O-])[C@H](C)C[C@H](C)C/C=C/[C@@H](C)[C@@H](O)[C@@H](C)[C@@H](O)C[C@@H]1CC[C@@](C)([C@H]2CC[C@@](C)([C@@H](C)O)O2)O1.[Ca+2] [IONOMYCIN CALCIUM]
Activity (THP-1 [4]): 75%

Cc1ccc(C)c(OCCCC(C)(C)C(=O)O)c1
Activity (THP-1 [5]): inactive

CCCCCCCCCC(=O)N[C@@H](Cc1c[nH]c2ccccc12)C(=O)N[C@H](CC(N)=O)C(=O)N[C@@H](CC(=O)O)C(=O)N[C@@H]1C(=O)NCC(=O)N[C@@H](CCCN)C(=O)N[C@@H](CC(=O)O)C(=O)N[C@H](C)C(=O)N[C@@H](CC(=O)O)C(=O)NCC(=O)N[C@H](CO)C(=O)N[C@@H]([C@H](C)CC(=O)O)C(=O)N[C@@H](CC(=O)c2ccccc2N)C(=O)O[C@@H]1C
EC50 (Staphylococcus aureus [6]): 1.14 µg/mL (≈ 0.703 µM)
Activity (Staphylococcus aureus [7]): 1.3 mg/L
log10cfu (Staphylococcus aureus [8]): -1.6
EC50 (Staphylococcus aureus [9]): 0.31 µg/mL
Ratio (THP-1 [10]): 0.82
Activity (Staphylococcus aureus [11]): 0.4 mg/L
log10cfu (Staphylococcus aureus [12]): -1.82
EC50 (Staphylococcus aureus [13]): 0.27 µg/mL
Activity (Staphylococcus aureus [14]): 0.4 mg/L
log10cfu (Staphylococcus aureus [15]): -1.67
EC50 (Staphylococcus aureus [16]): 0.62 µg/mL (≈ 0.383 µM)
Activity (Staphylococcus aureus [17]): 0.6 mg/L
log10cfu (Staphylococcus aureus [18]): -1.7
EC50 (Staphylococcus aureus [19]): 0.18 µg/mL
Activity (Staphylococcus aureus [20]): 0.2 mg/L
log10cfu (Staphylococcus aureus [21]): -2.01
EC50 (Staphylococcus aureus [22]): 2.67 µg/mL (≈ 1.65 µM)
Activity (Staphylococcus aureus [23]): 2.1 mg/L
log10cfu (Staphylococcus aureus [24]): -1.77
EC50 (Staphylococcus aureus [25]): 0.7 µg/mL
Activity (Staphylococcus aureus [26]): 0.6 mg/L
log10cfu (Staphylococcus aureus [27]): -1.78
Activity (Staphylococcus aureus [1]): Dose-dependent effect
Ratio (THP-1 [28]): 0.21
Ratio (THP-1 [29]): 0.75
Ratio (THP-1 [30]): 0.12
Ratio (THP-1 [31]): 0.18
Ratio (MDCK [32]): 0.23
Ratio (MDCK [33]): 0.83
Ratio (MDCK [34]): 0.04
Ratio (MDCK [35]): 0.18
Ratio (MDCK [36]): 0.08
Ratio (MDCK [37]): 0.3
Ratio (MDCK [38]): 0.03
Ratio (MDCK [39]): 0.07
